Where two headings read alike, the source gives them in different places.

One data set concerns ma104 cells. Briefly: adenosine release from ma104 cells. Format: cell-based. Conditions: 8 hours incubation. As to the method: Various concentrations of aminopterin were incubated with ma104 cells for 8 hours, and the release of adenosine measured (FIG. 5).
For data set [1], the system named is psoriasis. Conditions: cited from earlier work.
Data set [2] has as its system neutrophils that accumulated in the carrageenan-treated air pouches. As to the method:
J. Clin. Invest., 1993. 92(6):2675-82].
A separate group of 5 animals was given vehicle by ip injection on the same days (0.9% saline, control, n=5). On day 16, air pouches were induced on the animals by injecting 3 ml of air subcutaneously on the back. On day 22 (i.e. one day after the last dose of drug or vehicle), inflammation was induced by injection of 1 ml of a suspension of carrageenan (2% weight/volume in calcium- and magnesium-free PBS). The mice were put back in their cages and allowed to run free for 4 hours. […] After 4 hours, the animals were sacrificed, the pouches flushed with 2 ml of PBS and the exudates harvested. Aliquots were diluted 1:1 with methylene blue (0.01% w/v in PBS), and the cells were counted.

Data set [3] relates to psoriasis. Conditions: 329 patients, schedules of the 1955 study; cited from earlier work.
Data set [4] has as its system carrageenan-induced inflammation in air pouches. Briefly: duration of efficacy in the murine air-pouch model after cessation of 4 weeks of dosing. The format is in vivo, mice. The note with it: aminopterin 0.05 mg/kg, methotrexate 1.0 mg/kg. As to the method:
We therefore examined the rate at which anti-inflammatory activity was lost in the air-pouch model after the cessation of 4 weeks of dosing at the maximally efficacious dose (FIG. 2).
On day 25 the air pouches were re-inflated with 1.5 ml of air. Pouches were re-inflated as needed to maintain them.

For data set [5], the system named is rheumatoid arthritis, psoriatic arthritis, uncomplicated psoriasis, and atopic dermatitis. Conditions: 0.75-2 mg/day for approximately 1 week and greater; cited from earlier work.
The next data set has as its system adjuvant arthritis. Conditions: cumulative weekly doses of 0.12 mg/kg; cited from earlier work.
Data set [6] deals with T1, dihydrofolate reductase (DHFR) in the liver (Mus musculus, UniProt P00375).
T1 construct: from tissue; host or cells: liver (homogenate supernatant) of dosed mice
T1 sequence (P00375 1-187): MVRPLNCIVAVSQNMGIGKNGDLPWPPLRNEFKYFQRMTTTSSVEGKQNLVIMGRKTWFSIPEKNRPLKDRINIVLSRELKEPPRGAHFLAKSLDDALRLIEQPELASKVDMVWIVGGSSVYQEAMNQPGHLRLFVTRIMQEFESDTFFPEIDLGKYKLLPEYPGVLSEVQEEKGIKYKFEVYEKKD
Briefly: free DHFR in liver by 3H-MTX binding after weekly dosing. Format: in vivo, mice. As to the method: The animals that were treated in Example 1 were further analyzed with respect to the free dihydrofolate reductase (DHFR) available in their livers (i.e., amount of DHFR unbound, or not inhibited by either AMT or MTX) (FIG. 6). The following procedure was used. Portions of frozen liver were weighed and homogenized in three volumes of assay buffer (10 mM KPO4, 150 mM KCl, 1 mg/ml charcoal-treated BSA, 0.1 mg/ml NADPH, pH 7.5) on ice. After centrifugation for 30 min at 16000×G at 4° C., tissue extract was assayed for free DHFR by binding of 3H-MTX. Three serial 1:2 dilutions were made in assay buffer (total 100 μl/tube), starting with 10 μl extract for control samples (+190 μl buffer) or 100 μl for antifolate-treated samples. Approximately 2 pmoles of 3H-MTX (˜100,000 dpms) in 100 μl buffer was added to each tube and mixed by addition of another 100 μl buffer and agitation. After 30 mins on ice, unbound 3H-MTX was removed by addition of 200 μl dextran-coated activated charcoal (2.5% activated charcoal and 0.5% dextran MW 10,000) and centrifugation. Radioactivity in the supernatant (=bound 3H-MTX) was counted after careful removal from the charcoal pellet and addition of Ultima Gold scintillation fluid. A charcoal “blank” consisting of buffer, 3H-MTX and charcoal was subtracted from each value. Results were calculated by averaging the dpms bound/100 μl of the three dilutions, converting to picomoles MTX (specific activity 49,000 dpms/picomole, determined by competitive radioligand assay), and multiplying by 30 to give picomoles/gm tissue.

Data set [7] can be described thus: storage of aqueous compositions. The format is physicochemical. The note with it: six months of storage; water converts aminopterin to folic acid. From the text:
Because of their ease of administration, tablets and capsules represent the most advantageous oral dosage form in adults, in which case solid pharmaceutical carriers are employed. If desired, tablets may be coated by standard aqueous or nonaqueous techniques. The parenteral dosage form can consist of a sterile solution of the active ingredient, either in its free or salt form, in physiological buffer or sterile water. In addition, parenteral solutions can contain preservatives such as benzalkonium chloride, methyl- or propyl-paraben and chlorobutanol. Suitable pharmaceutical carriers are described in Remington's Pharmaceutical Sciences, a standard reference text in this field. […] Accordingly, such aqueous compositions are best stored desiccated and hydrated within several hours to several days prior to patient administration.

The next data set has as its system formaldehyde arthritis. The note with it: cumulative weekly doses of 0.3 mg/kg; cited from earlier work.
Data set [8] relates to antigen-induced arthritis. Conditions: cumulative weekly doses of >1.5 mg/kg; cited from earlier work.
For data set [9], the system named is influx of neutrophils (PMNs) in hyperoxia. Briefly: rat oxygen-toxicity model of bronchopulmonary dysplasia. Format: in vivo, rats. The note with it: single 0.2 mg/kg ip injection day 2 after birth, 95% oxygen, sacrifice day 8. From the text:
Mason, S, N.; Richard L. Auten, J. Lung inflammation in hyperoxia can be prevented by antichemokine treatment in newborn rats. American Journal of Respiratory Critical Care Medicine 2000, 162, 2316-2323]. […] Litter sizes were the same. […] Dams were rotated daily between air and oxygen cages to avoid maternal oxygen toxicity. On day 8, the pups were weighed and then euthanized, tracheas are cannulated and the pulmonary artery is perfused with saline. Bronchoalveolar lavage fluid (BALF) was then obtained for cell count and chemokine analysis (FIG. 3). The lungs were removed and snap frozen for myeloperoxidase activity assay (neutrophil accumulation within lung parenchyma) and 8-isoprostane, a marker of lipid oxidation. The pulmonary artery was perfused and the lungs were inflation-fixed with buffered formalin at 25 cm H2O.

As usually defined, the EC50 is the concentration that produces a half-maximal response. A lower EC50 goes with greater potency. On to `Nc1nc(N)c2nc(CNc3ccc(C(=O)N[C@@H](CCC(=O)O)C(=O)O)cc3)cnc2n1` [aminopterin, 4-amino-pteroyl-L-glutamic acid], for which a half-maximal response in the data set on ma104 cells (EC50) required 0.5 nM. Also, the “frequency of toxic reactions” value in the data set on psoriasis [1] (schedule (i): 1 tablet (0.5 mg) daily for six days) was 0%; with psoriasis [1] (schedule (ii): 1 tablet daily six days, one week rest, 1 tablet daily six days), 2.5%; in the data set on psoriasis [1] (schedule (iii): 1 tablet daily for 12 days) it was 13%; in the data set on psoriasis [1] (schedule (iv): 2 tablets daily for six days) it was 30%. Also, the “potency relative to methotrexate” value in [2] (ratio of EC50s, P<0.001) is listed as 43 fold. Also, the “signs of toxicity at the end of the dosing period” value in [2] (weekly ip doses, aminopterin 0.0005-0.050 mg/kg, methotrexate 0.01-1.00 mg/kg) was “no signs of toxicity”. The “EC50 for diminishing the number of neutrophils accumulated in carrageenan-treated air pouches” value in data set [2] (weekly ip injection days 1, 7, 14, 21, carrageenan day 22, exudate after 4 hours) stood at 0.0009 mg/kg/wk. The “overall incidence of toxicity” value in the data set on psoriasis [3] is 21%. Moreover, the “difference between aminopterin and methotrexate in rate of recovery of inflammation” value in data set [4] (8, 12 or 22 days after last of 4 weekly ip doses) was “no statistically significant difference”. Further, the duration of action entry in data set [4] (after last of 4 weekly ip doses) is “quite long”. Moreover, the toxic reactions entry in [5] is “the majority of patients developed toxic reactions”. Further, the efficacy entry (in the data set on adjuvant arthritis; with formaldehyde arthritis; in [8]) was “demonstrated the efficacy” each time. The toxicity result (in the data set with adjuvant arthritis; in data set [8]) was “severe toxicity” in each case. Besides, the “available DHFR in the liver bound (inhibited)” value in data set [6] (1 day after the last of 4 sequential weekly doses) is listed as “about 95%”; in data set [6] (8 d after the last of 4 weekly doses), “about 83%”; in data set [6] (22 d after the last of 4 weekly doses) it was “about 70%”. For the same molecule, the “stability of parenteral, oral liquid or other aqueous compositions” value in data set [7] was “accumulate folic acid to undesirable levels”. Besides, the “number of neutrophils in bronchoalveolar lavage fluid” value in [9] is “statistically significant reduction”.

The values above are taken from patent US8129383B2, “Aminopterin dosage forms and methods for inflammatory disorders” (Aminopterin LLC, priority 2005, dated 2012).
